In PubChem BioAssay AID2060912 (Molecular Pharmacology Branch, DTP, NCI, 2025):

Tested on: HUVEC/MSC spheroids viability
Assay: Human HUVEC/MSC cell line growth inhibition [KRAS2];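 for viability, T/C: percent of DMSO vehicle control luminescence so 100% = untreated viability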
Details: for IC50: curve of first compound; for viability, T/C: stronger effect = lower value
Procedure, shortened: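 Growth/viability of tumour-free HUVEC–hMSC spheroids was measured after exposure to targeted small molecules and KRAS inhibitors, singly or in combination. Agents were diluted in half-log steps from Cmax-based top concentrations, capped at 10 microM without known Cmax.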

CC(=O)Nc1cccc(-n2c(=O)n(C3CC3)c(=O)c3c(Nc4ccc(I)cc4F)n(C)c(=O)c(C)c32)c1 + CC1OCC2(CCN(c3cnc(Sc4ccnc(N)c4Cl)c(N)n3)CC2)C1N gave an IC50 (second compound 0.0316 µM) of 0.0181 µM, an IC50 (second compound 0.1 µM) of 0.0159 µM and an IC50 (second compound 0.316 µM) of 0.0162 µM. The IC50 (second compound 1 µM) was 0.00518 µM, the IC50 (second compound 3.16 µM) was 0.00127 µM and the IC50 (second compound 10 µM) was < 9.49e-05 µM. For the same compound, the viability, T/C (second compound 0.0316 µM, first compound 94.9 pM) was 110%, the viability, T/C (second compound 0.0316 µM, first compound 0.0003 µM) was 142% and the viability, T/C (second compound 0.0316 µM, first compound 0.000949 µM) was 113%. It also gave a viability, T/C (second compound 0.0316 µM, first compound 0.003 µM) of 118%, a viability, T/C (second compound 0.0316 µM, first compound 0.00949 µM) of 82.6% and a viability, T/C (second compound 0.0316 µM, first compound 0.03 µM) of 24.4%. The viability, T/C (second compound 0.1 µM, first compound 94.9 pM) was 118%, the viability, T/C (second compound 0.1 µM, first compound 0.0003 µM) was 106% and the viability, T/C (second compound 0.1 µM, first compound 0.000949 µM) was 104%. It also gave a viability, T/C (second compound 0.1 µM, first compound 0.003 µM) of 89.2%, a viability, T/C (second compound 0.1 µM, first compound 0.00949 µM) of 77.5% and a viability, T/C (second compound 0.1 µM, first compound 0.03 µM) of 21.9%. The viability, T/C (second compound 0.316 µM, first compound 94.9 pM) was 92.7%, the viability, T/C (second compound 0.316 µM, first compound 0.0003 µM) was 95.2% and the viability, T/C (second compound 0.316 µM, first compound 0.000949 µM) was 87.9%. It also gave a viability, T/C (second compound 0.316 µM, first compound 0.003 µM) of 81.8%, a viability, T/C (second compound 0.316 µM, first compound 0.00949 µM) of 74.5% and a viability, T/C (second compound 0.316 µM, first compound 0.03 µM) of 24.3%. The viability, T/C (second compound 1 µM, first compound 94.9 pM) was 85.6%, the viability, T/C (second compound 1 µM, first compound 0.0003 µM) was 75.1% and the viability, T/C (second compound 1 µM, first compound 0.000949 µM) was 69.1%. The viability, T/C (second compound 1 µM, first compound 0.003 µM) was 55.7%, the viability, T/C (second compound 1 µM, first compound 0.00949 µM) was 46% and the viability, T/C (second compound 1 µM, first compound 0.03 µM) was 10.9%. The viability, T/C (second compound 3.16 µM, first compound 94.9 pM) was 71.2%, the viability, T/C (second compound 3.16 µM, first compound 0.0003 µM) was 69.5% and the viability, T/C (second compound 3.16 µM, first compound 0.000949 µM) was 49.7%. It also gave a viability, T/C (second compound 3.16 µM, first compound 0.003 µM) of 39.9%, a viability, T/C (second compound 3.16 µM, first compound 0.00949 µM) of 22.7% and a viability, T/C (second compound 3.16 µM, first compound 0.03 µM) of 3.47%. It also gave a viability, T/C (second compound 10 µM, first compound 94.9 pM) of 48.7%, a viability, T/C (second compound 10 µM, first compound 0.0003 µM) of 39% and a viability, T/C (second compound 10 µM, first compound 0.000949 µM) of 33.3%. The viability, T/C (second compound 10 µM, first compound 0.003 µM) was 12.5%, the viability, T/C (second compound 10 µM, first compound 0.00949 µM) was 5.14% and the viability, T/C (second compound 10 µM, first compound 0.03 µM) was 0.77%.

With CC1(C)CCC(CN2CCN(c3ccc(C(=O)NS(=O)(=O)c4ccc(NCC5CCOCC5)c([N+](=O)[O-])c4)c(Oc4cnc5[nH]ccc5c4)c3)CC2)=C(c2ccc(Cl)cc2)C1 + C=CC(=O)N1CCN(c2nc(=O)n(-c3c(C)ccnc3C(C)C)c3nc(-c4c(O)cccc4F)c(F)cc23)C(C)C1 the IC50 (second compound 0.0316 µM) was 4.57 µM, the IC50 (second compound 0.1 µM) was 4.7 µM and the IC50 (second compound 0.316 µM) was 5.75 µM. The IC50 (second compound 1 µM) was 5.28 µM, the IC50 (second compound 3.16 µM) was 5.97 µM and the IC50 (second compound 10 µM) was 5.96 µM. It also gave a viability, T/C (second compound 0.0316 µM, first compound 0.0316 µM) of 105%, a viability, T/C (second compound 0.0316 µM, first compound 0.1 µM) of 92% and a viability, T/C (second compound 0.0316 µM, first compound 0.316 µM) of 95.4%. It also gave a viability, T/C (second compound 0.0316 µM, first compound 1 µM) of 85.4%, a viability, T/C (second compound 0.0316 µM, first compound 3.16 µM) of 75.2% and a viability, T/C (second compound 0.0316 µM, first compound 10 µM) of 2.28%. For the same compound, the viability, T/C (second compound 0.1 µM, first compound 0.0316 µM) was 114%, the viability, T/C (second compound 0.1 µM, first compound 0.1 µM) was 101% and the viability, T/C (second compound 0.1 µM, first compound 0.316 µM) was 114%. The viability, T/C (second compound 0.1 µM, first compound 1 µM) was 85.7%, the viability, T/C (second compound 0.1 µM, first compound 3.16 µM) was 80.1% and the viability, T/C (second compound 0.1 µM, first compound 10 µM) was 3.17%. The viability, T/C (second compound 0.316 µM, first compound 0.0316 µM) was 104%, the viability, T/C (second compound 0.316 µM, first compound 0.1 µM) was 100% and the viability, T/C (second compound 0.316 µM, first compound 0.316 µM) was 97.2%. The viability, T/C (second compound 0.316 µM, first compound 1 µM) was 115%, the viability, T/C (second compound 0.316 µM, first compound 3.16 µM) was 97.3% and the viability, T/C (second compound 0.316 µM, first compound 10 µM) was 6.37%. For the same compound, the viability, T/C (second compound 1 µM, first compound 0.0316 µM) was 144%, the viability, T/C (second compound 1 µM, first compound 0.1 µM) was 125% and the viability, T/C (second compound 1 µM, first compound 0.316 µM) was 125%. It also gave a viability, T/C (second compound 1 µM, first compound 1 µM) of 115%, a viability, T/C (second compound 1 µM, first compound 3.16 µM) of 86.5% and a viability, T/C (second compound 1 µM, first compound 10 µM) of 6.99%. The viability, T/C (second compound 3.16 µM, first compound 0.0316 µM) was 97%, the viability, T/C (second compound 3.16 µM, first compound 0.1 µM) was 123% and the viability, T/C (second compound 3.16 µM, first compound 0.316 µM) was 104%. The viability, T/C (second compound 3.16 µM, first compound 1 µM) was 113%, the viability, T/C (second compound 3.16 µM, first compound 3.16 µM) was 101% and the viability, T/C (second compound 3.16 µM, first compound 10 µM) was 8.7%. The viability, T/C (second compound 10 µM, first compound 0.0316 µM) was 115%, the viability, T/C (second compound 10 µM, first compound 0.1 µM) was 143% and the viability, T/C (second compound 10 µM, first compound 0.316 µM) was 162%. For the same compound, the viability, T/C (second compound 10 µM, first compound 1 µM) was 119%, the viability, T/C (second compound 10 µM, first compound 3.16 µM) was 93.6% and the viability, T/C (second compound 10 µM, first compound 10 µM) was 15.4%.
